Experimental data taken from patent publication US20080234262A1 (Wyeth, priority 2007, published 2008).

Tests used:
PI3K = PI3K (Homo sapiens, UniProt P42336); experiment: Fluorescence polarization assay for PI3K; assay type: biochemical; conditions: PI3Kα; read-out: PI3Kα IC50;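 note: PI3K kinase reaction on PIP2 with ATP, 30-60 min, product sensed by GST-GRP with red probe in fluorescence polarization (mP), controls without enzyme and at zero time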
prostate line LNCap = experiment: In vitro cell culture growth assay (MTS), LNCap; assay type: cell-based, human; conditions: LNCap cells, three days after drug treatment;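 note: viable cell density read by absorbance at 490 nm, growth expressed as percent of vehicle-treated cells on the same plate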
breast line MDA468 = experiment: In vitro cell culture growth assay (MTS), MDA468; assay type: cell-based, human; conditions: MDA468 cells, three days after drug treatment
Outline: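 Steps: plate cells; add inhibitors the next day; incubate 3 days; add MTS dye, which viable cells convert metabolically; measure absorbance at 490 nm; calculate percent of control growth relative to vehicle-treated cells in the same plate.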

PI3K, sequence (P42336 whole entry): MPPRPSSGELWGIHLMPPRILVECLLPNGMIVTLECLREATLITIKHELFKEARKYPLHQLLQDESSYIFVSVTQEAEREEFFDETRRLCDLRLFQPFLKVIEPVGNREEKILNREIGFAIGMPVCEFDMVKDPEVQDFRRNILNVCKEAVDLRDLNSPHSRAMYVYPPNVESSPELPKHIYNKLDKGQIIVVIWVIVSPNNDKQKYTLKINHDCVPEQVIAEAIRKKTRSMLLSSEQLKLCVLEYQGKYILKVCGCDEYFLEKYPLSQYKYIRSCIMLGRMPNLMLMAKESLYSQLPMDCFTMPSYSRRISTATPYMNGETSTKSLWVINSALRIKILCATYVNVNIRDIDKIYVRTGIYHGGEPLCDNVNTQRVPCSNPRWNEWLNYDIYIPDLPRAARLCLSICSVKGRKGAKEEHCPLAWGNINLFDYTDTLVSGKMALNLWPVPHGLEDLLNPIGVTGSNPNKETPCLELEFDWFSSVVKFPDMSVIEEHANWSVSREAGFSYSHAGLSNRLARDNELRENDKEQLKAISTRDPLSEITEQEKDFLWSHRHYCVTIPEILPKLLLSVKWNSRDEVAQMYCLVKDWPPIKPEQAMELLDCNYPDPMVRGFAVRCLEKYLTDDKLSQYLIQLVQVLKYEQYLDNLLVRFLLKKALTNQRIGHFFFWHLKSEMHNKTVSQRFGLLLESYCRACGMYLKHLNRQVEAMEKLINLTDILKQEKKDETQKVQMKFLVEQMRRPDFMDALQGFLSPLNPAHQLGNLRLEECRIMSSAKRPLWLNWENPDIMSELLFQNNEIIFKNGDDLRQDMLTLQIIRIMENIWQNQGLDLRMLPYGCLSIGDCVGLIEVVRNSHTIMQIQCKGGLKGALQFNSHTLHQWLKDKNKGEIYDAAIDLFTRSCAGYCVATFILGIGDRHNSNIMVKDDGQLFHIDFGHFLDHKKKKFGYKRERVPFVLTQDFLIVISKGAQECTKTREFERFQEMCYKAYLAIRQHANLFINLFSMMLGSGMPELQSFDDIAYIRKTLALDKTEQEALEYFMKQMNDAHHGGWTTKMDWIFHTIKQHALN
PI3K, sequence (P27986 whole entry partner): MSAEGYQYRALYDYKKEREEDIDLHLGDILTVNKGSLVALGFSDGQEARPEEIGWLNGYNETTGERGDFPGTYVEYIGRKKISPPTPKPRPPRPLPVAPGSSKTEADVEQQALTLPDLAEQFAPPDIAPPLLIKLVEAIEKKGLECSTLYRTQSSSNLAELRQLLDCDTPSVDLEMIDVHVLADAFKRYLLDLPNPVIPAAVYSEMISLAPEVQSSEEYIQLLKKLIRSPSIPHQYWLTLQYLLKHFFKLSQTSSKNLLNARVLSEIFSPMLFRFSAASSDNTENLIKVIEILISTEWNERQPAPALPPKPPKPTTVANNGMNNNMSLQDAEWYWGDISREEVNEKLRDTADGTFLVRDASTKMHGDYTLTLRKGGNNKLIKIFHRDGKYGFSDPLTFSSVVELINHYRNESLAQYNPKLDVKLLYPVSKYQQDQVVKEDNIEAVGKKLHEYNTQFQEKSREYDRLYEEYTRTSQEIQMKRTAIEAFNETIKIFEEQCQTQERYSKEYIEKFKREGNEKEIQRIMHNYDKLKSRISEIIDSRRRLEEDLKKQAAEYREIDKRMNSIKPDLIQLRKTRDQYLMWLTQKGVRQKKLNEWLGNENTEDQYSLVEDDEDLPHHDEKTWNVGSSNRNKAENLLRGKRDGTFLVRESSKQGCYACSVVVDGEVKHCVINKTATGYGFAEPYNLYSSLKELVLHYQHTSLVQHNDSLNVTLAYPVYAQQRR

Row | Molecule | IC50 (PI3K) [nM] | IC50 (prostate line LNCap; Homo sapiens, LNCaP, 72 h) [nM] | IC50 (breast line MDA468; Homo sapiens, 72 h) [nM] | IC50 (prostate line LNCap) [nM] | IC50 (breast line MDA468) [nM]
1 | Cc1ccc(CN2CCC(n3ncc4c(N5CCOCC5)nc(-c5cccc(O)c5)nc43)CC2)s1 [Example 18] | 22 | 220 | 1300 |  | 
2 | COC(=O)Nc1ccc(-c2nc(N3CCOCC3)c3cnn(C4CCN(C(=O)c5ccc(F)cc5)CC4)c3n2)cc1 [Example 445, methyl (4-{1-[1-(4-fluorobenzoyl)piperidin-4-yl]-4-morpholin-4-yl-1H-pyrazolo[3,4-d]pyrimidin-6-yl}phenyl)carbamate] | 989 | 580 | 1600 |  | 
3 | CNC(=O)Nc1ccc(-c2nc(N3CCOCC3)c3cnn(C4CCN(Cc5cccc(O)c5)CC4)c3n2)cc1 [Example 397, 1-(4-{1-[1-(3-hydroxybenzyl)piperidin-4-yl]-4-morpholin-4-yl-1H-pyrazolo[3,4-d]pyrimidin-6-yl}phenyl)-3-methylurea] | 28 | 140 | 400 |  | 
4 | O=C(NC1CCCC1)c1ccc(-c2nc(N3CCOCC3)c3cnn(C4CCN(Cc5ccccc5)CC4)c3n2)cc1 [Example 70] | 3870 | 3000 | 15000 |  | 
5 | methyl [4-(1-{1-[(6-fluoropyridin-3-yl)methyl]piperidin-4-yl}-4-morpholin-4-yl-1H-pyrazolo[3,4-d]pyrimidin-6-yl)phenyl]carbamate [Compound 697] | 1200 |  |  | 900 | 6000
6 | COC(=O)Nc1ccc(-c2nc(N3CCOCC3)c3cnn(C4CCN(C(=O)c5ccccn5)CC4)c3n2)cc1 [Compound 685, methyl (4-{4-morpholin-4-yl-1-[1-(pyridin-2-ylcarbonyl)piperidin-4-yl]-1H-pyrazolo[3,4-d]pyrimidin-6-yl}phenyl)carbamate] | 1920 |  |  | 200 | 580
7 | CCNC(=O)Nc1ccc(-c2nc(N3CCOCC3)c3cnn(C4CCN(C(=O)c5cccnc5)CC4)c3n2)c(F)c1 [Example 462, 1-ethyl-3-(3-fluoro-4-{4-morpholin-4-yl-1-[1-(pyridin-3-ylcarbonyl)piperidin-4-yl]-1H-pyrazolo[3,4-d]pyrimidin-6-yl}phenyl)urea] | 1620 | 900 | 900 |  | 
8 | COC(=O)N1CCC(n2ncc3c(N4CCOCC4)nc(-c4ccc(NC(=O)Nc5ccncc5F)cc4)nc32)CC1 [Compound 864, methyl 4-[6-(4-{[(3-fluoropyridin-4-yl)carbamoyl]amino}phenyl)-4-morpholin-4-yl-1H-pyrazolo[3,4-d]pyrimidin-1-yl]piperidine-1-carboxylate] | 116 | 27.4 | 98 |  | 
9 | COC(=O)N1CCC(n2ncc3c(N4CCOCC4)nc(-c4ccc(NC(=O)OCCN(C)C)cc4)nc32)CC1 [Compound 904, methyl 4-{6-[4-({[2-(dimethylamino)ethoxy]carbonyl}amino)phenyl]-4-morpholin-4-yl-1H-pyrazolo[3,4-d]pyrimidin-1-yl}piperidine-1-carboxylate] | 645 | 2300 | 7800 |  | 
10 | CNC(=O)Nc1ccc(-c2nc(N3CCOCC3)c3cnn(C4CCN(CCCCO)CC4)c3n2)cc1 [Compound 743, 1-(4-{1-[1-(4-hydroxybutyl)piperidin-4-yl]-4-morpholin-4-yl-1H-pyrazolo[3,4-d]pyrimidin-6-yl}phenyl)-3-methylurea] | 212 | 1800 | 2200 |  | 
11 | CCOC(=O)N1CCC(n2ncc3c(N4CCOCC4)nc(-c4ccc(NC(=O)Nc5ccncc5)cc4)nc32)CC1 [Compound 817, ethyl 4-(4-morpholin-4-yl-6-{4-[(pyridin-4-ylcarbamoyl)amino]phenyl}-1H-pyrazolo[3,4-d]pyrimidin-1-yl)piperidine-1-carboxylate] | 40 | < 27 | < 27 |  | 
12 | COC(=O)Nc1ccc(-c2nc(N3CCOCC3)c3cnn(C4CCN(C(C)=O)CC4)c3n2)cc1 [Compound 809, methyl {4-[1-(1-acetylpiperidin-4-yl)-4-morpholin-4-yl-1H-pyrazolo[3,4-d]pyrimidin-6-yl]phenyl}carbamate] | 2100 | 2300 | 4500 |  | 
13 | CNCCNC(=O)Nc1ccc(-c2nc(N3CCOCC3)c3cnn(C4CCN(C(=O)c5ccccc5)CC4)c3n2)cc1 [Example 386, 1-{4-[1-(1-benzoylpiperidin-4-yl)-4-morpholin-4-yl-1H-pyrazolo[3,4-d]pyrimidin-6-yl]phenyl}-3-[2-(methylamino)ethyl]urea] | 48 | 1200 | 1400 |  | 
14 | CNC(=O)Nc1ccc(-c2nc(N3CCOCC3)c3cnn(C4CCN(C(=O)c5cccnc5Cl)CC4)c3n2)cc1 [Compound 669, 1-[4-(1-{1-[(2-chloropyridin-3-yl)carbonyl]piperidin-4-yl}-4-morpholin-4-yl-1H-pyrazolo[3,4-d]pyrimidin-6-yl)phenyl]-3-methylurea] | 100 |  |  | 80 | 460
15 | NNC(=O)Nc1ccc(-c2nc(N3CCOCC3)c3cnn(C4CCN(Cc5ccccc5)CC4)c3n2)cc1 [Example 309, N-{4-[1-(1-benzylpiperidin-4-yl)-4-morpholin-4-yl-1H-pyrazolo[3,4-d]pyrimidin-6-yl]phenyl}hydrazinecarboxamide] | 155 | 900 | 7500 |  | 
16 | COCCN1CCC(n2ncc3c(N4CCOCC4)nc(-c4ccc5[nH]ccc5c4)nc32)CC1 [Compound 241, 6-(1H-indol-5-yl)-1-[1-(2-methoxyethyl)piperidin-4-yl]-4-morpholin-4-yl-1H-pyrazolo[3,4-d]pyrimidine] | 5000 | 2400 | 4200 |  | 
17 | NS(=O)(=O)c1cccc(-c2nc(N3CCOCC3)c3cnn(C4CCN(Cc5ccccc5)CC4)c3n2)c1 [Compound 83] | 2410 | 4000 | 7000 |  | 
18 | CN(C)CC(=O)N1CCC(n2ncc3c(N4CCOCC4)nc(-c4ccc5[nH]ccc5c4)nc32)CC1 [Compound 94] | 1460 | 1900 | 4200 |  | 
19 | NC(=O)Nc1ccc(-c2nc(N3CCOCC3)c3cnn(C4CCN(Cc5cccnc5)CC4)c3n2)cc1 [Example 313, 1-(4-{4-morpholin-4-yl-1-[1-(pyridin-3-ylmethyl)piperidin-4-yl]-1H-pyrazolo[3,4-d]pyrimidin-6-yl}phenyl)urea] | 82 | 200 | 200 |  | 
20 | CNC(=O)Nc1ccc(-c2nc(N3CCOCC3)c3cnn(C4CCN(Cc5ccccn5)CC4)c3n2)cc1 [Compound 575, 1-methyl-3-(4-{4-morpholin-4-yl-1-[1-(pyridin-2-ylmethyl)piperidin-4-yl]-1H-pyrazolo[3,4-d]pyrimidin-6-yl}phenyl)urea] | 64 | < 27 | 500 |  | 
21 | CNC(=O)Nc1ccc(-c2nc(N3CCOCC3)c3cnn(C4CCS(=O)(=O)CC4)c3n2)cc1 [Compound 869, 1-{4-[1-(1,1-dioxidotetrahydro-2H-thiopyran-4-yl)-4-morpholin-4-yl-1H-pyrazolo[3,4-d]pyrimidin-6-yl]phenyl}-3-methylurea] | 74 | 540 | 590 |  | 
22 | COCCNCCc1ccc(NC(=O)Nc2ccc(-c3nc(N4CCOCC4)c4cnn(C5CCN(C(=O)OC)CC5)c4n3)cc2)cc1 [Compound 922, methyl 4-[6-(4-{[(4-{2-[(2-methoxyethyl)amino]ethyl}phenyl)carbamoyl]amino}phenyl)-4-morpholin-4-yl-1H-pyrazolo[3,4-d]pyrimidin-1-yl]piperidine-1-carboxylate] | 30 | < 0.8 | 90 |  | 
23 | O=C(Nc1ccccc1)Nc1ccc(-c2nc(N3CCOCC3)c3cnn(C4CCN(Cc5cccnc5)CC4)c3n2)cc1F [Example 351, 1-(2-fluoro-4-{4-morpholin-4-yl-1-[1-(pyridin-3-ylmethyl)piperidin-4-yl]-1H-pyrazolo[3,4-d]pyrimidin-6-yl}phenyl)-3-phenylurea] | 41 | 70 | 400 |  | 
24 | CN(C)c1ccc(-c2nc(N3CCOCC3)c3cnn(-c4ccccc4)c3n2)cc1 [Compound 114] | 393 | 15000 | 27000 |  | 
25 | CC(C)(C)OC(=O)N1CCC(n2ncc3c(N4CCOCC4)nc(-c4ccc(NC(=O)Nc5ccc(F)nc5)cc4)nc32)CC1 [Compound 952, tert-butyl 4-[6-(4-{[(6-fluoropyridin-3-yl)carbamoyl]amino}phenyl)-4-morpholin-4-yl-1H-pyrazolo[3,4-d]pyrimidin-1-yl]piperidine-1-carboxylate] | 130 | 60 | 750 |  | 
26 | CNC(=O)Nc1ccc(-c2nc(N3CCOCC3)c3cnn([C@H]4CCCN(C(=O)OC(C)(C)C)C4)c3n2)cc1 [Compound 872, tert-butyl (3S)-3-(6-{4-[(methylcarbamoyl)amino]phenyl}-4-morpholin-4-yl-1H-pyrazolo[3,4-d]pyrimidin-1-yl)piperidine-1-carboxylate] | 169 | 270 | 1000 |  | 
27 | COC(=O)N1CCC(n2ncc3c(N4CCOCC4)nc(-c4ccc(NC(=O)OCCN5CCOCC5)cc4)nc32)CC1 [Compound 906, methyl 4-[4-morpholin-4-yl-6-(4-{[(2-morpholin-4-ylethoxy)carbonyl]amino}phenyl)-1H-pyrazolo[3,4-d]pyrimidin-1-yl]piperidine-1-carboxylate] | 2040 | 5200 | 23000 |  | 
28 | CN1CCC(C(=O)Nc2ccc(-c3nc(N4CCOCC4)c4cn[nH]c4n3)cc2)CC1 [Compound 284, 1-methyl-N-[4-(4-morpholin-4-yl-1H-pyrazolo[3,4-d]pyrimidin-6-yl)phenyl]piperidine-4-carboxamide] | 885 | 5300 | 22000 |  | 
